In patent publication US11040981B2, “Pyrrolotriazine compounds and methods of inhibiting TAM kinases” (Syros Pharmaceuticals, Inc., priority 2017, dated 2021):

Experiments:
FLT3 = target: T1, FLT3 (Homo sapiens, UniProt P36888); assay: TR-FRET kinase activity assay, FLT3; type: biochemical; details: ATP at Km, 60 minutes
T1 sequence (P36888 27-993): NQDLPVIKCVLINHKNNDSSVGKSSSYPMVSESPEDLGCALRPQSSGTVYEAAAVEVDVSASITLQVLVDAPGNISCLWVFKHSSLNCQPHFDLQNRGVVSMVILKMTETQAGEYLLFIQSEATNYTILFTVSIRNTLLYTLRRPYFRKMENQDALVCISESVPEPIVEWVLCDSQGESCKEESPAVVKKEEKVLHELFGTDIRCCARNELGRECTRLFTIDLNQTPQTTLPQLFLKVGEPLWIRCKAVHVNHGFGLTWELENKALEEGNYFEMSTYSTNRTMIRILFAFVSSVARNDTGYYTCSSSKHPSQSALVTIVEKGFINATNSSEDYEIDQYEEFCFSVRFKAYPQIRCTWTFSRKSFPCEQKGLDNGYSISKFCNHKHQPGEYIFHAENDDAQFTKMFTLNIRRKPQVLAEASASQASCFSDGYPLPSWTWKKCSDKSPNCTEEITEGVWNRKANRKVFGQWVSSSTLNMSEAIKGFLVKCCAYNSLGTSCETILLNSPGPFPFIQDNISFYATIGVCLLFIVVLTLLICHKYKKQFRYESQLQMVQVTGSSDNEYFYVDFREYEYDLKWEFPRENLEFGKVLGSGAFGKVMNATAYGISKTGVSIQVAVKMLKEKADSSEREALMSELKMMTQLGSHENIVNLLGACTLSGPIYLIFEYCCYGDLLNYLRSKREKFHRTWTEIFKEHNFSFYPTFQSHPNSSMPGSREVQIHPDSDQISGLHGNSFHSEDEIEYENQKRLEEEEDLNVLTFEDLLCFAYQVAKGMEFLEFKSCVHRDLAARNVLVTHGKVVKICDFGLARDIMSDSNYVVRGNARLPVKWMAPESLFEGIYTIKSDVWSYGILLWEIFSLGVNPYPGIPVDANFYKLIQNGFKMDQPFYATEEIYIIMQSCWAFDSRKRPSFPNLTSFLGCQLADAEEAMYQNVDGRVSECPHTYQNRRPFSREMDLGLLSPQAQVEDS
Method in brief: (§1)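 IC50 reflects the drop in TR-FRET between Eu anti-phosphotyrosine antibody and labelled peptide after a 60-minute room-temperature reaction. Buffer was 50 mM HEPES pH 7.5 with 10 mM MgCl2, 1 mM EGTA, 0.01% Brij 35 and 1 mM DTT, with ATP at Km per enzyme and EDTA quench.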

AXL = target: T2, AXL (Homo sapiens, UniProt P30530); assay: TR-FRET kinase activity assay, AXL; type: biochemical; details: ATP at Km, 60 minutes
T2 sequence (P30530 26-894): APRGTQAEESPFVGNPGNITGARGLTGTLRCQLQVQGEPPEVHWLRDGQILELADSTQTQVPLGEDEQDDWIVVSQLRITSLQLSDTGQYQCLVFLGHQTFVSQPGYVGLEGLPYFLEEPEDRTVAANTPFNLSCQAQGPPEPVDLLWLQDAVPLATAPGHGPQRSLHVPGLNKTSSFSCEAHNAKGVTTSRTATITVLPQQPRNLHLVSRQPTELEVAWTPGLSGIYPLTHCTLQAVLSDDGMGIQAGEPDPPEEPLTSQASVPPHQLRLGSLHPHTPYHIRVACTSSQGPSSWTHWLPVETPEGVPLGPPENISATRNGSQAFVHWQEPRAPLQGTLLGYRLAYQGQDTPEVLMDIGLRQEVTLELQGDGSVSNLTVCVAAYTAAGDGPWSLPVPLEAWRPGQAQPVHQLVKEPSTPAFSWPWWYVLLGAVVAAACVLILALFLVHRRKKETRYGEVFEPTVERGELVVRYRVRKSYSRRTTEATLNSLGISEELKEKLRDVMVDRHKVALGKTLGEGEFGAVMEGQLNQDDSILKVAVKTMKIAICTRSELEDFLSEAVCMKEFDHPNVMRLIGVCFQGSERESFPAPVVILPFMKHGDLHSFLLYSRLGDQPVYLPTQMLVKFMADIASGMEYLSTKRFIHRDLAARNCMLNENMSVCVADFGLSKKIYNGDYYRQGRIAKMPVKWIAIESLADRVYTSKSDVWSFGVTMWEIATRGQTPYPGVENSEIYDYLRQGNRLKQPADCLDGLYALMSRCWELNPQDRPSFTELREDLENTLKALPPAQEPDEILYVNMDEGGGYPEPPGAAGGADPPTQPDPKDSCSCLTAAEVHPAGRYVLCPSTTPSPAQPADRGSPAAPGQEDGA
Method in brief: as §1

SMILES	IC50 (FLT3) [nM]	IC50 (AXL) [nM]
COC[C@H](C)Nc1ncc2c(-c3cnc(C)o3)cc([C@H]3CC[C@H](O)CC3)n2n1 [Compound 261]	1000 to 10000	100 to 1000
COC[C@H](C)Nc1ncc2c(-c3cn(C)nc3C)cc([C@H]3CC[C@H](O)CC3)n2n1 [Compound 260]	100 to 1000	100 to 1000
COC[C@H](C)Nc1ncc2c(-c3cncc(C(=O)N4CCN(C)CC4)c3)cc([C@H]3CC[C@H](O)CC3)n2n1 [Compound 234]	1000 to 10000	100 to 1000
COC[C@H](C)Nc1ncc2c(-c3cn(C[Si](C)(C)C)nn3)cc([C@H]3CC[C@H](O)CC3)n2n1 [Compound 248]	1000 to 10000	100 to 1000
COCC(C)Nc1ncc2c(-c3ccc(-c4nnc(C)o4)cc3)cc(C3CCC(O)CC3)n2n1 (centres unmarked) [Compound 198]	100 to 1000	100 to 1000
COC[C@H](C)Nc1ncc2c(-c3cc(C)ccn3)cc([C@H]3CC[C@H](O)CC3)n2n1 [Compound 257]	1000 to 10000	1000 to 10000
COC[C@H](C)Nc1ncc2c(-c3cnn([C@@H]4CCOC4)c3)cc([C@H]3CC[C@H](O)CC3)n2n1 [Compound 242]	100 to 1000	≤ 100
COC[C@H](C)Nc1ncc2c(-c3cncc(C)c3)cc([C@H]3CC[C@H](O)CC3)n2n1 [Compound 231]	1000 to 10000	100 to 1000
COC[C@H](C)Nc1ncc2c(-c3ccc(C)cn3)cc([C@H]3CC[C@H](O)CC3)n2n1 [Compound 258]	1000 to 10000	100 to 1000
COC[C@H](C)Nc1ncc2c(-c3ccn(C)n3)cc([C@H]3CC[C@H](O)CC3)n2n1 [Compound 208]	1000 to 10000	100 to 1000
CCCCC[C@H](C)Nc1ncc2c(NC3CCN(C)CC3)cc([C@H]3CC[C@H](O)CC3)n2n1 [Compound 107]	100 to 1000	≤ 100
C[C@H](Nc1ncc2c(-c3ccc(CN4CCOCC4)cc3)cc([C@H]3CC[C@H](O)CC3)n2n1)[C@@H]1CCCO1 [Compound 205]	1000 to 10000	1000 to 10000
COCC(C)Nc1ncc2c(-c3ccc4nccn4c3)cc(C3CCC(O)CC3)n2n1 (centres unmarked) [Compound 193]	1000 to 10000	≤ 100
